Reference: ChEMBL document CHEMBL3045011, “Synthesis and Herbicidal Activities of 2-(5-Isoxazolyloxy)-acetamide Derivatives” (J Pestic Sci, 1998)
Calls of active or inactive are those of the source. No cut-off for these calls is given here.

What was measured:
Glycine max [1] = test: Toxicity in Glycine max cv. Tamahomare (soybean) assessed as seedling death under green house at 1 kg/ha at 25 degC measured after 4 weeks by crop selectivity assay; type: organism-based; settings: in vivo, 672 h
Gossypium hirsutum [2] = test: Toxicity in Gossypium hirsutum cv. Hakushuu (cotton) assessed as seedling death under green house at 0.5 kg/ha at 25 degC measured after 4 weeks by crop selectivity assay; type: organism-based; settings: in vivo, 672 h
Digitaria ciliaris [3] = test: Herbicidal activity against Digitaria ciliaris assessed as seedling death under green house at 1 kg/ha at 25 degC measured after 4 weeks; type: functional, organism-based
Digitaria ciliaris [4] = test: Herbicidal activity against Digitaria ciliaris assessed as seedling death under green house at 0.5 kg/ha at 25 degC measured after 4 weeks; type: functional, organism-based
Glycine max [5] = test: Toxicity in Glycine max cv. Tamahomare (soybean) assessed as seedling death under green house at 0.5 kg/ha at 25 degC measured after 4 weeks by crop selectivity assay; type: organism-based; settings: in vivo, 672 h
Echinochloa crus-galli [6] = test: Herbicidal activity against Echinochloa crus-galli (barnyard grass) assessed as seedling death under green house at 0.5 kg/ha at 25 degC measured after 4 weeks; type: functional, organism-based
Echinochloa crus-galli [7] = test: Herbicidal activity against Echinochloa crus-galli (barnyard grass) assessed as seedling death under green house at 1 kg/ha at 25 degC measured after 4 weeks; type: functional, organism-based
Gossypium hirsutum [8] = test: Toxicity in Gossypium hirsutum cv. Hakushuu (cotton) assessed as seedling death under green house at 1 kg/ha at 25 degC measured after 4 weeks by crop selectivity assay; type: organism-based; settings: in vivo, 672 h
Triticum aestivum [9] = test: Toxicity in Triticum aestivum cv. Nohrin-61 (wheat) assessed as seedling death under green house at 1 kg/ha at 25 degC measured after 4 weeks by crop selectivity assay; type: organism-based; settings: in vivo, 672 h
Triticum aestivum [10] = test: Toxicity in Triticum aestivum cv. Nohrin-61 (wheat) assessed as seedling death under green house at 0.5 kg/ha at 25 degC measured after 4 weeks by crop selectivity assay; type: organism-based; settings: in vivo, 672 h
Amaranthus viridis [11] = test: Herbicidal activity against Amaranthus viridis assessed as seedling death under green house at 0.5 kg/ha at 25 degC measured after 4 weeks; type: functional, organism-based
Persicaria lapathifolia [12] = test: Herbicidal activity against Persicaria lapathifolia assessed as seedling death under green house at 0.25 kg/ha at 25 degC measured after 4 weeks; type: functional, organism-based
Persicaria lapathifolia [13] = test: Herbicidal activity against Persicaria lapathifolia assessed as seedling death under green house at 0.5 kg/ha at 25 degC measured after 4 weeks; type: functional, organism-based
Glycine max [14] = test: Toxicity in Glycine max cv. Tamahomare (soybean) assessed as seedling death under green house at 0.25 kg/ha at 25 degC measured after 4 weeks by crop selectivity assay; type: organism-based; settings: in vivo, 672 h
Triticum aestivum [15] = test: Toxicity in Triticum aestivum cv. Nohrin-61 (wheat) assessed as seedling death under green house at 0.25 kg/ha at 25 degC measured after 4 weeks by crop selectivity assay; type: organism-based; settings: in vivo, 672 h
Amaranthus viridis [16] = test: Herbicidal activity against Amaranthus viridis assessed as seedling death under green house at 0.25 kg/ha at 25 degC measured after 4 weeks; type: functional, organism-based
Digitaria ciliaris [17] = test: Herbicidal activity against Digitaria ciliaris assessed as seedling death under green house at 0.25 kg/ha at 25 degC measured after 4 weeks; type: functional, organism-based
Gossypium hirsutum [18] = test: Toxicity in Gossypium hirsutum cv. Hakushuu (cotton) assessed as seedling death under green house at 0.25 kg/ha at 25 degC measured after 4 weeks by crop selectivity assay; type: organism-based; settings: in vivo, 672 h
Echinochloa crus-galli [19] = test: Herbicidal activity against Echinochloa crus-galli (barnyard grass) assessed as seedling death under green house at 0.25 kg/ha at 25 degC measured after 4 weeks; type: functional, organism-based
Amaranthus viridis [20] = test: Herbicidal activity against Amaranthus viridis assessed as seedling death under green house at 1 kg/ha at 25 degC measured after 4 weeks; type: functional, organism-based
Persicaria lapathifolia [21] = test: Herbicidal activity against Persicaria lapathifolia assessed as seedling death under green house at 1 kg/ha at 25 degC measured after 4 weeks; type: functional, organism-based
Digitaria ciliaris [22] = test: Herbicidal activity against Digitaria ciliaris assessed as seedling death under green house at 2 kg/ha at 25 degC measured after 4 weeks; type: functional, organism-based
Echinochloa crus-galli [23] = test: Herbicidal activity against Echinochloa crus-galli (barnyard grass) assessed as seedling death under green house at 2 kg/ha at 25 degC measured after 4 weeks; type: functional, organism-based

Row | Structure (SMILES) | Activity (Gossypium hirsutum [2]) | Activity (Digitaria ciliaris [3]) | Activity (Digitaria ciliaris [4]) | Activity (Glycine max [5]) | Activity (Echinochloa crus-galli [6]) | Activity (Echinochloa crus-galli [7]) | Activity (Triticum aestivum [10]) | Activity (Amaranthus viridis [11]) | Activity (Glycine max [14]) | Activity (Triticum aestivum [15]) | Activity (Amaranthus viridis [16]) | Activity (Digitaria ciliaris [17]) | Activity (Gossypium hirsutum [18]) | Activity (Amaranthus viridis [20]) | other results
1 | CN(C(=O)COc1onc(C(F)(F)F)c1-c1ccccc1)c1ccccc1 | Non-toxic | Active | Active | Non-toxic | Active | Active | Non-toxic | – | – | – | – | – | – | – | Activity (Glycine max [1]): Non-toxic; Activity (Gossypium hirsutum [8]): Non-toxic; Activity (Triticum aestivum [9]): Non-toxic
2 | CN(C(=O)COc1nnc(C(F)(F)F)s1)c1ccccc1 | Non-toxic | – | – | Non-toxic | – | – | Non-toxic | inactive | Non-toxic | Non-toxic | inactive | inactive | Non-toxic | – | Activity (Persicaria lapathifolia [12]): inactive; Activity (Persicaria lapathifolia [13]): inactive
3 | CN(C(=O)COc1cc(C(F)(F)F)no1)c1ccccc1 | Non-toxic | Active | Active | Non-toxic | – | Active | Non-toxic | – | – | – | – | – | – | – | Activity (Gossypium hirsutum [8]): Non-toxic
4 | Cc1c(C(F)(F)F)noc1OCC(=O)N(C)c1ccccc1Br | – | Active | Active | – | Active | Active | – | Active | Non-toxic | Non-toxic | – | Active | Non-toxic | Active | Activity (Echinochloa crus-galli [19]): Active; Activity (Persicaria lapathifolia [21]): Active
5 | Cc1c(C(F)(F)F)noc1OCC(=O)N(C)c1ccccc1 | Non-toxic | Active | Active | Non-toxic | Active | Active | Non-toxic | – | – | – | – | – | – | Active | Activity (Glycine max [1]): Non-toxic; Activity (Triticum aestivum [9]): Non-toxic
6 | Cc1c(C(F)(F)F)noc1OCC(=O)N(C)c1cccc(F)c1 | – | Active | Active | – | Active | Active | – | Active | Non-toxic | Non-toxic | Active | Active | Non-toxic | Active | Activity (Echinochloa crus-galli [19]): Active; Activity (Persicaria lapathifolia [21]): Active
7 | CCCCCCN(C)C(=O)COc1onc(C(F)(F)F)c1C | – | – | – | – | – | – | – | – | – | – | – | – | – | – | Activity (Digitaria ciliaris [22]): Active; Activity (Echinochloa crus-galli [23]): Active
8 | CN(C(=O)COc1nc2ccccc2s1)c1ccccc1 [MEFENACET] | Non-toxic | – | – | Non-toxic | – | – | Non-toxic | – | Non-toxic | Non-toxic | inactive | – | Non-toxic | – | Activity (Persicaria lapathifolia [12]): inactive; Activity (Persicaria lapathifolia [13]): inactive
